Test results from patent publication US6939893B2, “Method of reducing toxicity of anticancer agents” (priority 2002, dated 2005).
Like-named read-outs stand apart in the source and are kept apart here.

Tests used:
[1] = test system: normal rats; test: Effect of MSC on toxicity of irinotecan in normal rats (Example 2, FIG. 2); format: in vivo
Source text: The data are combined from 2-5 independent experiments with four (4) animals for each experiment.

[2] = test system: squamous cell carcinoma of the head and neck (A253); conditions: MSC 0.2 mg/mouse/d × 42 p.o. where combined
[3] = test system: normal nude mice
[4] = test system: normal nude mice; test: Effect of MSC on in vivo toxicity of irinotecan in normal nude mice (Example 1, FIG. 1); conditions: for protection provided by MSC: MSC 0.2 mg/mouse/day ×42 p.o.
Procedure: The data are combined from at least three independent experiments with five (5) animals per experiment.
To illustrate this embodiment, nude mice were administered 42 single, daily oral doses of 0.2 mg/mouse of MSC.

[5] = test system: normal nude mice; test: Comparison of MSC and SLM as modulators of irinotecan toxicity in normal nude mice (Example 5, FIG. 4); format: in vivo
Source text: Each experimental group had 10 mice each from two (2) independent experiments.

[6] = test system: normal mice; test: Role of MSC dose in modulating irinotecan toxicity in normal mice (Example 6); format: in vivo
Source text: In order to identify the minimum dose of MSC in the successful modulation of drug induced toxicities. […] Those skilled in the art will recognize that by conducting experiments as described herein, optimal doses of selenium for reducing toxicity of other chemotherapeutic agents and other anticancer modalities can be easily determined.

[7] = test system: rats; test: Renal function test after CDDP ± MSC treatment in rats (Example 8); format: in vivo
Procedure: Reversal of renal toxicity induced by Cisplatin (CDDP). The dose limiting toxicity of therapeutic doses of cisplatin is kidney toxicity. Studies were performed to identify blood biological markers modified by CDDP and to evaluate the ability of MSC to reverse the process. Four groups of six animals each were used. The first group was untreated rats (control), the second group was given MSC at 0.75 mg/rat/day for 20 days and samples collected 2 hours after MSC administration on day 20. The third group was administered CDDP alone at 6 mg/kg by a single
i.v. injection and samples were collected on day 6. The fourth group was adminstered MSC (0.75 mg/rat/day for 20 days) with CDDP (6 mg/kg). CDDP was given 14 days after MSC administration and […] was given for 6 more days after CDDP administration. Samples were collected on day 6 after CDDP administration. Blood samples were collected at postmortem by cardiac puncture. Serum was obtained from the blood samples and urea nitrogen and creatinine concentrations were determined by standard methods using commercially kits (Ortho Clinical Diagnostics).

[8] = test system: normal nude mice; test: Effect of MSC on toxicity of irinotecan, taxol, FU and cisplatin in normal nude mice (Example 4, FIG. 3); format: in vivo; conditions: toxic doses above MTD: irinotecan weekly, taxol 75 mg/kg, 5-FU 150 mg/kg, cisplatin 15 mg/kg once i.v.
Source text: In all cases drug doses used were toxic and above the maximum tolerated dose.

[9] = irinotecan 100 mg/kg/wk × 4 i.v.
[10] = day 22, 24 h after third irinotecan dose, irinotecan 200 mg/kg, MSC 0.2 mg/mouse
[11] = irinotecan 100 mg/kg/wk ×4 i.v. alone
[12] = irinotecan 200 mg/kg/wk×4 i.v. alone
[13] = serum, Mean ± SD, CDDP 6 mg/kg single i.v., MSC 0.75 mg/rat daily for 20 days

Q: CCc1c2c(nc3ccc(OC(=O)N4CCC(N5CCCCC5)CC4)cc13)-c1cc3c(c(=O)n1C2)COC(=O)[C@]3(O)CC [Irinotecan, irinotecan, reference compound] was tested. Which animals died ([1]; rats, irinotecan 200 mg/kg/day for 3 days i.v. (twice MTD), MSC 1 mg/kg/rat daily ×18 p.o.) did it give?
A: all the animals

Q: What about the “Response Rate (%) CR” value [2, 9] of the same molecule?
A: 20%

Q: And the “Response Rate (%) PR” value [2, 9]?
A: 20%

Q: What about the “Survivors (%)” value [2, 9] of the same molecule?
A: 100%

Q: What about the “Survivors (%)” value ([2]; irinotecan 200 mg/kg/wk × 4 i.v.) of the same molecule?
A: 45%

Q: What about the “Survivors (%)” value ([2]; irinotecan 300 mg/kg/wk × 4 i.v.) of the same molecule?
A: 0%

Q: And the “HCT: haematocrit” value [3, 10]?
A: 40.9 ± 4.2%

Q: And the “MCH: mean corpuscular hemoglobin” value [3, 10]?
A: 17.5 ± 0.3 PICO Grams

Q: What about the “MCHC: mean corpuscular hemoglobin concentration” value [3, 10] of the same molecule?
A: 32.7 ± 0.6%

Q: What about the “PLT: platelets” value [3, 10] of the same molecule?
A: 836 ± 201 THSN/CU MM

Q: What about the “RBC: red blood cell” value [3, 10] of the same molecule?
A: 7.8 ± 1.0 Mill/CU MM

Q: And the “WBC: white blood cell” value [3, 10]?
A: 3.5 ± 0.5 THSN/CU MM

Q: And the “WBC: white blood cell” value ([3]; day 22, 24 h after third irinotecan dose, irinotecan 200 mg/kg, MSC 0.2 mg/mouse, listed as irinotecan)?
A: 3.5 THSN/CU MM

Q: And the “reduction in white blood cells” value ([3]; irinotecan 200 mg/kg/wk, versus control (9.4 to 3.5))?
A: over 60%

Q: And the animals survived treatment [4, 11]?
A: 100%

Q: What about the weight loss [4, 11] of the same molecule?
A: less than 20%

Q: And the “animals died by the end of treatment” value [4, 12]?
A: 55%

Q: What about the “maximum tolerated dose (MTD)” value ([4]; normal nude mice, irinotecan i.v. weekly ×4) of the same molecule?
A: 100 mg/kg/wk

Q: And the lethality [5, 12]?
A: approximately 55%

Q: What about the survivors [5, 12] of the same molecule?
A: 45%

Q: And the lethality ([6]; irinotecan 200 mg/kg/wk×4 alone)?
A: 50%

Q: Which “reversal of markers associated with kidney toxicity (BUN and creatinine)” value ([7]; MSC 0.75 mg/rat/day with CDDP 6 mg/kg) does the source give for C[Se]C[C@H](N)C(=O)O [MSC, methylselenocysteine] here?
A: highly effective

Q: What about the “Blood Urea Nitrogen” value [7, 13] of the same molecule?
A: 12.7 ± 1.2 mg/dL

Q: What about the “Creatinine” value [7, 13] of the same molecule?
A: 0.30 ± 0.00 mg/dL

Q: What about the “animals with severe diarrhea completely protected by MSC” value ([1]; rats (FIG. 2), irinotecan 200 mg/kg dose) of the same molecule?
A: 50%

Q: And the “effect of MSC on the survival rate of animals” value [8]?
A: protective effect

Q: And the “prevention of neutropenia toxicity induced by irinotecan” value ([3]; MSC 0.2 mg/mouse/day with irinotecan 200 mg/kg/wk)?
A: effectively prevent neutropenia toxicity

Q: And the “HCT: haematocrit” value [3, 10]?
A: 49.4 ± 2.4%

Q: What about the “HGB: hemoglobin” value [3, 10] of the same molecule?
A: 16.8 ± 0.7 Gram/DL

Q: What about the “MCH: mean corpuscular hemoglobin” value [3, 10] of the same molecule?
A: 18.4 ± 0.7 PICO Grams

Q: And the “MCHC: mean corpuscular hemoglobin concentration” value [3, 10]?
A: 34.0 ± 0.7%

Q: What about the “MCV: mean corpuscular volume” value [3, 10] of the same molecule?
A: 54.0 ± 1.0 CU Microns

Q: What about the “PLT: platelets” value [3, 10] of the same molecule?
A: 756 ± 231 THSN/CU MM

Q: What about the “RBC: red blood cell” value [3, 10] of the same molecule?
A: 9.1 ± 0.5 Mill/CU MM

Q: What about the “WBC: white blood cell” value [3, 10] of the same molecule?
A: 10.3 ± 4.5 THSN/CU MM

Q: And the “protection against hematologic toxicity induced by irinotecan” value ([3]; irinotecan 200 mg/kg/wk×4)?
A: complete protection

Q: And the “effect of adding MSC on overall body weight loss” value ([4]; irinotecan 100 mg/kg/wk ×4 i.v. + MSC 0.2 mg/mouse/day ×42 p.o.)?
A: decrease in overall body weight loss

Q: And the “protection provided by MSC” value ([4]; irinotecan 200 mg/kg/wk×4 (twice MTD))?
A: 100%

Q: And the animals survived ([4]; irinotecan 200 mg/kg/wk×4 i.v. with MSC 0.2 mg/mouse/day ×42 p.o.)?
A: 100%

Q: And the “protection provided by MSC” value ([4]; irinotecan 300 mg/kg/wk×4 (three times MTD))?
A: 80%

Q: What about the “reduction of irinotecan toxicity by selenium compound” value ([5]; irinotecan 200 mg/kg/wk×4 i.v., selenium compound p.o. daily for 28 days, first dose 7 days before irinotecan) of the same molecule?
A: equally effective in reducing toxicity

Q: What about the “MSC dose sufficient for complete protection against lethal doses of irinotecan” value ([6]; MSC 0.01 to 0.2 mg/mouse/day×42 with irinotecan 200 mg/kg/wk×4) of the same molecule?
A: ≤ 0.01 mg/mouse

Q: What about the “lethality with the combination” value ([6]; MSC as low as 0.01 mg/mouse with irinotecan 200 mg/kg/wk×4) of the same molecule?
A: no lethality
